From PubChem BioAssay (NCI)
“And” between values parts separate entries of the source, which are not always exact repeats. Identical values can stand only once.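 How tested: cells in 96-well plates exposed to compound for 48 hours at five concentrations. The concentration for 50% growth inhibition is given as GI50. TGI marks complete inhibition of growth.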

How the values were obtained:
Test in all cases: DTP human tumour cell line panel, 48 h
MDA-N = system: MDA-N
SR leukemia = system: SR leukemia
ACHN renal = system: ACHN renal
OVCAR-4 ovarian = system: OVCAR-4 ovarian
OVCAR-8 ovarian = system: OVCAR-8 ovarian
KM12 colon = system: KM12 colon
NCI/ADR-RES ovarian = system: NCI/ADR-RES ovarian
IGROV1 ovarian = system: IGROV1 ovarian
RXF 393 renal = system: RXF 393 renal
HT29 colon = system: HT29 colon

Row | SMILES | TGI (MDA-N) | TGI (SR leukemia) | TGI (ACHN renal) | TGI (OVCAR-4 ovarian) | TGI (OVCAR-8 ovarian) | TGI (KM12 colon) | TGI (NCI/ADR-RES ovarian) | TGI (IGROV1 ovarian) | TGI (RXF 393 renal) | TGI (HT29 colon) | GI50 (ACHN renal) | GI50 (OVCAR-4 ovarian) | GI50 (NCI/ADR-RES ovarian) | GI50 (RXF 393 renal)
1 | N#Cc1nnc2c3c(-c4ccc(Cl)cc4)c(C#N)c(=O)[nH]c3nn2c1N | 13.4 µM | 16.7 µM | 21.9 µM | 51 µM | 14 µM | 28.5 µM | 54.9 µM | 9.65 µM | 14.9 µM | 21.2 µM |  |  |  | 
2 | COc1cc(O)c2c(c1)C(O)C(O)CC1OC1C(=O)/C=C/CC(C)OC2=O (centres undefined) | 21.6 µM | > 45.4 µM | 17 µM | > 52.9 µM | 25 µM | 27.1 µM | 30.3 µM | 20.1 µM | 5.6 µM | 10 µM |  |  |  | 
3 | COc1ccc(S(=O)(=O)Nc2ccc(-c3csc(N4C(=O)/C(=C/C=C\c5ccccc5)N=C4c4ccccc4)n3)cc2)cc1Cl | 80.7 µM | > 100 µM | > 100 µM | 88.9 µM | 88.4 µM | 97.1 µM | 73.8 µM | 56.5 µM | 62.5 µM | > 100 µM |  |  |  | 
4 | O=C(O)c1ccc(Nc2cnc3ccc(C(F)(F)F)cc3n2)cc1 | 37.3 µM | 43.8 µM | 32.6 µM | 40.7 µM | 41.2 µM | 31.4 µM | > 100 µM | 28.5 µM | 35.3 µM | 33.6 µM |  |  |  | 
5 | COC(=O)CCc1ccc2c(c1)CC1(C2)Cc2ccc(CCC(=O)OC)cc2C1 | > 100 µM | 61.5 µM | > 100 µM | > 100 µM | > 100 µM | > 100 µM | > 100 µM | > 100 µM | > 100 µM | > 100 µM |  |  |  | 
6 | CC(=O)Nc1ncc2c(n1)-c1ccccc1OC2 | > 100 µM | > 100 µM | > 100 µM | > 100 µM | > 100 µM | > 100 µM | > 100 µM | > 100 µM | > 100 µM | > 100 µM |  |  |  | 
7 | C/C(=C/CC[C@](C)(OC1OC(CO)C(O)C(O)C1O)[C@H]1CC[C@]2(C)[C@@H]1CC[C@@H]1[C@@]3(C)CC[C@H](O)C(C)(C)[C@@H]3C[C@H](O)[C@]12C)CO (some centres undefined) | 56.6 µM | > 100 µM | > 100 µM | > 100 µM | > 100 µM | 47.8 µM | > 100 µM | > 100 µM | 19.4 µM | 45.1 µM |  |  |  | 
8 | CC(C)[Si]1(C(C)C)OCC2OC(n3cnc4c(N)ncnc43)C(N)C2O[Si](C(C)C)(C(C)C)O1 (centres undefined) | 24.3 µM | > 27.1 µM | 21.6 µM | > 100 µM | 25.1 µM | 16.6 µM | 20.7 µM | 43.3 µM | 27.1 µM | 26.9 µM |  |  |  | 
9 | CCOP(=O)(OCC)C(F)(F)CC1CCCCC1 | > 10 µM | > 10 µM | > 10 µM | > 10 µM | > 10 µM | > 10 µM | > 10 µM | > 10 µM | > 10 µM | > 10 µM |  |  |  | 
10 | COCCCN1C(=O)C2c3[nH]c4ccccc4c3C3CCC(C(C)(C)C)CC3C2C1=O (centres undefined) | > 100 µM | 80.6 µM | 83.9 µM | > 100 µM | > 100 µM | 55.5 µM | > 10 µM | > 100 µM | 51.3 µM | 34 µM |  |  |  | 
11 | COC1(OC)/C(=C(\N)C=O)NC(C)(C)N1O | > 100 µM | > 100 µM | > 100 µM | > 100 µM | > 100 µM | > 100 µM | > 100 µM | > 100 µM | > 100 µM | > 100 µM |  |  |  | 
12 | CC1=CC(c2ccccc2)n2c(nc3cc4ccccc4cc32)N1 (centres undefined) | > 100 µM | > 100 µM | > 100 µM | > 100 µM | > 100 µM | > 100 µM | > 100 µM | > 100 µM | > 100 µM | > 100 µM |  |  |  | 
13 | O=C(NCCCCl)c1c(O)c2ccccc2[nH]c1=O | > 100 µM | > 100 µM | > 100 µM | > 100 µM | > 100 µM | > 100 µM | > 100 µM | > 100 µM | > 71.5 µM | > 100 µM |  |  |  | 
14 | COc1cc(C2S/C(=C/c3ccccc3)C(=O)N2c2ccc(Cl)cc2)cc(OC)c1OC (centres undefined) | 34.3 µM | > 100 µM | > 100 µM | > 100 µM | > 100 µM | > 100 µM | > 100 µM | > 100 µM | > 100 µM | > 75.9 µM |  |  |  | 
15 | CN(Cc1nc2c(N)nc(N)nc2nc1N)c1ccc(C(=O)NC(CCC(=O)O)C(=O)O)cc1 (centres undefined) | > 100 µM | > 100 µM | > 100 µM | > 100 µM | > 100 µM | > 100 µM | > 100 µM | > 100 µM | > 100 µM | > 100 µM |  |  |  | 
16 | O=C1O/C(=C\c2ccc(O)cc2)C(c2ccc(O)c(Cl)c2)=C1Br | > 100 µM | 21 µM | 30 µM | 38.4 µM | 73.8 µM | 30.3 µM | 65.4 µM | 25.7 µM | 59.8 µM | 29.9 µM |  |  |  | 
17 | CNC(=O)OCC1=C(COC(=O)NC)CN(c2ccccc2)C1 | > 100 µM | > 100 µM | > 100 µM | > 100 µM | > 100 µM | > 100 µM | > 100 µM | > 100 µM | > 100 µM | > 100 µM |  |  |  | 
18 | O=C(O)c1ccccc1-c1ccccc1C(=O)c1ccccc1 | > 100 µM | > 100 µM | > 100 µM | > 100 µM | > 100 µM | > 100 µM | > 100 µM | > 100 µM | > 100 µM | > 100 µM |  |  |  | 
19 | COc1ccc(C[C@H]2COC(=O)[C@@H]2Cc2cc(OC)c(OC)c(OC)c2)cc1OC | > 100 µM | > 100 µM | > 100 µM | > 100 µM | > 100 µM | > 100 µM | > 100 µM | > 100 µM | > 100 µM | > 100 µM |  |  |  | 
20 | C=CCN1C(=O)/C(=C/c2ccc(Cl)cc2)N=C1SC1OC(COC(C)=O)C(OC(C)=O)C(OC(C)=O)C1OC(C)=O (centres undefined) | > 100 µM | > 100 µM and 36.6 µM | > 100 µM | 28.2 µM and 67.1 µM | 36 µM and 81.4 µM | > 100 µM | > 100 µM | > 100 µM | 19.5 µM and 47.5 µM | > 100 µM | 14.5 µM and 37.4 µM | 4.14 µM and 16.7 µM | 11.5 µM and 31.7 µM | 4.94 µM and 11.6 µM
21 | C[C@@H](C[C@@H](O)[C@H](O)C(C)(C)O)[C@H]1CC=C2[C@]3(C)[C@H](O)C[C@H]4C(C)(C)[C@H](O)CC[C@]4(C)[C@H]3CC[C@@]21C | 29.5 µM | > 100 µM | 27.4 µM | 27.5 µM | 33.8 µM | 32.8 µM | 28.1 µM | 30.1 µM | 35.7 µM | 26.2 µM |  |  |  | 
22 | COC1=CC2(C=CC1=O)CCN=c1c(O)c3c(c(O)c12)=NC=N3 (centres undefined) | > 100 µM | > 100 µM | > 100 µM | > 100 µM | > 100 µM | > 100 µM | > 100 µM | > 100 µM | > 100 µM | > 100 µM |  |  |  | 
23 | BrCC[P+](c1ccccc1)(c1ccccc1)c1ccccc1 | 7.59 µM | 27.5 µM | > 100 µM | 23.1 µM | 21.9 µM | 17.1 µM | 27.5 µM | 29.1 µM | 8.02 µM | 30.2 µM |  |  |  | 
